Patent US9120756B2, “Substituted phenylureas and phenylamides as vanilloid receptor ligands” (Gruenenthal GmbH, priority 2009, dated 2015)

Tests used:
Format in all cases: cell-based
[1] = target: rat-species vanilloid receptor 1 (VR1/TRPV1) (Rattus norvegicus (Rat), UniProt O35433); assay: FLIPR Ca2+ influx assay on rat dorsal root ganglia cells, capsaicin stimulus (method I); details: for Ki: capsaicin (Cap); for inhibition at 5 µM: read-out: Ki (rat) Cap: inhibition (as a percentage) @ 5 μM, capsaicin, inhibition determined at 5 μM
Sequence of rat-species vanilloid receptor 1 (VR1/TRPV1) (O35433 whole entry): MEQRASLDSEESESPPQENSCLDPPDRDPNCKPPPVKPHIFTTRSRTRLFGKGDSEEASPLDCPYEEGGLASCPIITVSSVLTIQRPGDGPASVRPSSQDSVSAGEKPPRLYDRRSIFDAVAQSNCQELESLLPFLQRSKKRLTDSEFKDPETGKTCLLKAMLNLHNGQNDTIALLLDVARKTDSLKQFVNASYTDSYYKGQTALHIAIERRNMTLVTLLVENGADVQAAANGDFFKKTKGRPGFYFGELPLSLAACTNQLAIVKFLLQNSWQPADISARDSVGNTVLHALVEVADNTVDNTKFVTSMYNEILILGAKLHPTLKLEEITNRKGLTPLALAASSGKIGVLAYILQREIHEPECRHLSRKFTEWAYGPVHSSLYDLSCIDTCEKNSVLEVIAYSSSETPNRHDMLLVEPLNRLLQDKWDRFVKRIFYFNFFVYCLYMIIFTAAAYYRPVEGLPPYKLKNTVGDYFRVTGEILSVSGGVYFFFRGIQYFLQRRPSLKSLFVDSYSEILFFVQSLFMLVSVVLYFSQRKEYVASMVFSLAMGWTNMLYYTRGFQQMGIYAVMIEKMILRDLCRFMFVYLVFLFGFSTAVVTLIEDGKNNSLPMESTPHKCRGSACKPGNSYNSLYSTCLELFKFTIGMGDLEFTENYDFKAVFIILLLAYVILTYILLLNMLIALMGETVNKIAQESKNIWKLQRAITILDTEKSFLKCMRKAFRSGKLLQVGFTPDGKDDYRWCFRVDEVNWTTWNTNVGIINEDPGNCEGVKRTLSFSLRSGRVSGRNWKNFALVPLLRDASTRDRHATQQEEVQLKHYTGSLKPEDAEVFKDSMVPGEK
Description: (§1) The agonistic or antagonistic effect of the substances to be tested on the rat-species vanilloid receptor 1 (VR1/TRPV1) can be determined using the following assay. In this assay, the influx of Ca^2+ through the receptor channel is quantified with the aid of a Ca^2+-sensitive dye (type Fluo-4, Molecular Probes Europe BV, Leiden, the Netherlands) in a fluorescent imaging plate reader (FLIPR, Molecular Devices, Sunnyvale, USA).
Complete medium: 50 ml HAMS F12 nutrient mixture (Gibco Invitrogen GmbH, Karlsruhe, Germany) with
10% by volume of FCS (foetal calf serum, Gibco Invitrogen GmbH, Karlsruhe, Germany, heat-inactivated);
2 mM L-glutamine (Sigma, Munich, Germany);
1% by weight of AA solution (antibiotic/antimyotic solution, PAA, Pasching, Austria) and 25 ng/ml NGF medium (2.5 S, Gibco Invitrogen GmbH, Karlsruhe, Germany)
Cell culture plate: Poly-D-lysine-coated, black 96-well plates having a clear base (96-well black/clear plate, BD Biosciences, Heidelberg, Germany) are additionally coated with laminin (Gibco Invitrogen GmbH, Karlsruhe, Germany), the laminin being diluted with PBS (Ca—Mg-free PBS, Gibco Invitrogen GmbH, Karlsruhe, Germany) to a concentration of 100 μg/ml. Aliquots having a laminin concentration of 100 μg/ml are removed and stored at −20° C. The aliquots are diluted with PBS in a ratio of 1:10 to 10 μg/ml of laminin and respectively 50 μL of the solution are pipetted into a recess in the cell culture plate. The cell culture plates are incubated for at least two hours at 37° C., the excess solution is removed by suction and the recesses are each washed twice with PBS. The coated cell culture plates are stored with excess PBS which is not removed until just before the feeding of the cells.
The vertebral column is removed from decapitated rats and placed immediately into cold HBSS buffer (Hank's buffered saline solution, Gibco Invitrogen GmbH, Karlsruhe, Germany), i.e. buffer located in an ice bath, mixed with 1% by volume (percent by volume) of an AA solution (antibiotic/antimyotic solution, PAA, Pasching, Austria). The vertebral column is cut longitudinally and removed together with fasciae from the vertebral canal. Subsequently, the dorsal root ganglia (DRG) are removed and again stored in cold HBSS buffer mixed with 1% by volume of an AA solution. The DRG, from which all blood remnants and spinal nerves have been removed, are transferred in each case to 500 μL of cold type 2 collagenase (PAA, Pasching, Austria) and incubated for 35 minutes at 37° C. After the addition of 2.5% by volume of trypsin (PAA, Pasching, Austria), incubation is continued for 10 minutes at 37° C. After complete incubation, the enzyme solution is carefully pipetted off and 500 μL of complete medium are added to each of the remaining DRG. […] The contents of each Falcon tube are respectively filtered through a 70 μm Falcon filter element and centrifuged for 10 minutes at 1,200 rpm and RT. The resulting pellet is respectively taken up in 250 μL of complete medium and the cell count is determined.
The number of cells in the suspension is set to 3×10^5 per ml and 150 μL of this suspension are in each case introduced into a recess in the cell culture plates coated as described hereinbefore. […] Subsequently, the cells are loaded with 2 μM of Fluo-4 and 0.01% by volume of Pluronic F127 (Molecular Probes Europe BV, Leiden, the Netherlands) in HBSS buffer (Hank's buffered saline solution, Gibco Invitrogen GmbH, Karlsruhe, Germany) for 30 min at 37° C., washed 3 times with HBSS buffer and after further incubation for 15 minutes at RT used for Ca^2+ measurement in a FLIPR assay. The Ca^2+-dependent fluorescence is in this case measured before and after the addition of substances (λex=488 nm, λem=540 nm). Quantification is carried out by measuring the highest fluorescence intensity (FC, fluorescence counts) over time.
The FLIPR protocol consists of 2 substance additions.

hVR1 [2] = target: T1, hVR1 (Homo sapiens (Human), UniProt Q8NER1); assay: FLIPR Ca2+ influx assay on CHO K1 cells transfected with the VR1 gene, capsaicin stimulus (method II); design: key to Ki (human being) Cap: result in words (NE / AG): AG=agonist; pAG=partial agonist; NE=no effect; details: for inhibition at 1 µM: CHO-K1, read-out: Ki (human being) inhibition (as a percentage) @ 1 μM, capsaicin, inhibition determined at 1 μM; for Ki: capsaicin (Cap), read-out: Ki (human being) [nM] Cap; for Ki (human being) Cap: result in words (NE / AG): capsaicin
T1 sequence (Q8NER1 whole entry): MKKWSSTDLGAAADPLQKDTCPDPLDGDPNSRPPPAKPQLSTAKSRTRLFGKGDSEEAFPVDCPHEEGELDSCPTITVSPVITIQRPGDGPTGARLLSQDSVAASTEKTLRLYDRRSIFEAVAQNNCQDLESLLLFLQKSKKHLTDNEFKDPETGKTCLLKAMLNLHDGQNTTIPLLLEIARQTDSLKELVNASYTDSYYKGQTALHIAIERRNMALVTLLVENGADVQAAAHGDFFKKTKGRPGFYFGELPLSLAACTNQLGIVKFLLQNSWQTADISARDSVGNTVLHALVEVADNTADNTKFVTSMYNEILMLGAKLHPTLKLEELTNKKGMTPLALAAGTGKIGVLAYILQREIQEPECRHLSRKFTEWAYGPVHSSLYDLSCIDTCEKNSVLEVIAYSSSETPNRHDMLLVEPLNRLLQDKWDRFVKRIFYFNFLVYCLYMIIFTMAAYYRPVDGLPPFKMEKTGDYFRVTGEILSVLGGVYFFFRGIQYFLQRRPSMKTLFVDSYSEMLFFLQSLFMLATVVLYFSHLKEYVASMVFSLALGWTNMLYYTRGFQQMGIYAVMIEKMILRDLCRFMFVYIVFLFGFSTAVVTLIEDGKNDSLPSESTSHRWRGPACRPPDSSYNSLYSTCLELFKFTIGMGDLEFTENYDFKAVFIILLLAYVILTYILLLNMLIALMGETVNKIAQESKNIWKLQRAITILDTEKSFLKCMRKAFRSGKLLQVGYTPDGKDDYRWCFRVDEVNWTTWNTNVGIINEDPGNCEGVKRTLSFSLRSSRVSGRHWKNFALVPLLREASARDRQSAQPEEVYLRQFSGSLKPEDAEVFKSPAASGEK
Excerpt: In the process, the Ca^2+ influx is quantified in the FLIPR assay with the aid of a Ca^2+-sensitive dye (type Fluo-4, Molecular Probes Europe BV, Leiden, the Netherlands) in a fluorescent imaging plate reader (FLIPR, Molecular Devices, Sunnyvale, USA), as described hereinafter.
as §1, with “the” for “the rat-species”, “(VR1)” for “(VR1/TRPV1)”, “can also” for “can”, “the” for “the receptor”
Chinese hamster ovary cells (CHO K1 cells, European Collection of Cell Cultures (ECACC) United Kingdom) are stably transfected with the VR1 gene. For functional testing, these cells are plated out on poly-D-lysine-coated black 96-well plates having a clear base (BD Biosciences, Heidelberg, Germany) at a density of 25,000 cells/well. The cells are incubated overnight at 37° C. and 5% CO2 in a culture medium (Ham's F12 nutrient mixture, 10% by volume of FCS (foetal calf serum), 18 μg/ml of L-proline). The next day the cells are incubated with Fluo-4 (Fluo-4 2 μM, 0.01% by volume of Pluronic F127, Molecular Probes in HBSS (Hank's buffered saline solution), Gibco Invitrogen GmbH, Karlsruhe, Germany) for 30 minutes at 37° C. Subsequently, the plates are washed three times with HBSS buffer and after further incubation for 15 minutes at RT used for Ca^2+ measurement in a FLIPR assay. The Ca^2+-dependent fluorescence is measured before and after the addition of the substances to be tested (λex wavelength=488 nm, λem=540 nm). Quantification is carried out by measuring the highest fluorescence intensity (FC, fluorescence counts) over time.
The FLIPR protocol consists of 2 substance additions. First the compounds to be tested (10 μM) are pipetted onto the cells and the Ca^2+ influx is compared with the control (capsaicin 10 μM) (% activation based on the Ca^2+ signal after the addition of 10 μM of capsaicin). After 5 minutes' incubation, 100 nM of capsaicin are applied and the Ca^2+ influx is also determined.
Desensitising agonists and antagonists led to suppression of the Ca^2+ influx.
Starting from the percentage displacement caused by different concentrations of the compounds to be tested of general formula I, IC50 inhibitory concentrations which cause a 50-percent displacement of capsaicin were calculated. Ki values for the test substances were obtained by conversion by means of the Cheng-Prusoff equation (Cheng, Prusoff; Biochem. Pharmacol. 22, 3099-3108, 1973).

hVR1 [3] = target: T1, hVR1; assay: FLIPR assay hVR1, after pH stimulus; design: key to IC50 (human being) hVR1 pH: result in words (NE / AG): AG=agonist; pAG=partial agonist; NE=no effect; details: for inhibition at 10 µM: read-out: IC50 (human being) hVR1 pH: inhibition (as a percentage) @ 10 μM, inhibition determined at 10 μM
Description: In this assay, the influx of Ca^2+ through the channel is quantified with the aid of a Ca^2+-sensitive dye (type Fluo-4, Molecular Probes Europe BV, Leiden, the Netherlands) in a fluorescent imaging plate reader (FLIPR, Molecular Devices, Sunnyvale, USA). Chinese hamster ovary cells (CHO K1 cells, European Collection of Cell Cultures (ECACC) United Kingdom) are stably transfected with the VR1 gene. For functional testing, these cells are plated out on poly-D-lysine-coated black 96-well plates having a clear base (BD Biosciences, Heidelberg, Germany) at a density of 25,000 cells/well. […] Subsequently, the plates are washed three times with HBSS buffer and after further incubation for 15 minutes at RT used for Ca^2+ measurement in a FLIPR assay. […] Quantification is carried out by measuring the highest fluorescence intensity (FC, fluorescence counts) over time. The FLIPR protocol consists of 2 substance additions. […] Desensitising agonists and antagonists led to suppression of the Ca^2+ influx. […] Ki values for the test substances were obtained by conversion by means of the Cheng-Prusoff equation (Cheng, Prusoff; Biochem. Pharmacol. 22, 3099-3108, 1973).

Structure (SMILES)	Ki [1]	inhibition at 1 µM (hVR1 [2])	IC50 (human being) hVR1 pH: result in words (NE / AG) (hVR1 [3])	inhibition at 5 µM [1]	inhibition at 5 µM (hVR1 [2]; CHO-K1, read-out: Ki (human being) Cap column: inhibition (as a percentage) @ 5 μM, capsaicin, inhibition determined at 5 μM)	Ki (hVR1 [2])	inhibition at 10 µM (hVR1 [3])	Ki (human being) Cap: result in words (NE / AG) (hVR1 [2])
COc1ccc(-n2nc(C(C)(C)C)cc2CNC(=O)C(C)c2ccc(NS(C)(=O)=O)c(F)c2)cc1 (stereo not drawn) [Example 20, N-((3-tert-butyl-1-(4-methoxyphenyl)-1H-pyrazol-5-yl)methyl)-2-(3-fluoro-4-(methylsulphonamido)phenyl)propanamide]	2830 nM	55%	NE					
Cc1ccc(/C=C/n2nc(C(C)(C)C)cc2CNC(=O)C(C)c2ccc(NS(C)(=O)=O)c(F)c2)cc1 (stereo not drawn) [Example 19, (E)-N-((3-tert-butyl-1-(4-methylstyryl)-1H-pyrazol-5-yl)methyl)-2-(3-fluoro-4-(methylsulphonamido)phenyl)propanamide]	819 nM	44%	NE					
C[C@H](C(=O)NCc1cc(C(C)(C)C)nn1C)c1ccc(NS(C)(=O)=O)c(F)c1 [Example 4, (S)-N-((3-tert-butyl-1-methyl-1H-pyrazol-5-yl)methyl)-2-(3-fluoro-4-(methylsulphonamido)phenyl)propanamide]			NE	20%	9%			
CC(C(=O)NCc1cc(C(C)(C)C)n[nH]1)c1ccc(NS(C)(=O)=O)c(F)c1 (stereo not drawn) [Example 1, N-((3-tert-butyl-1H-pyrazol-5-yl)methyl)-2-(3-fluoro-4-(methylsulphonamido)phenyl)propanamide]			NE	25%				NE
CCCCCCn1nc(C(C)(C)C)cc1CNC(=O)[C@@H](C)c1ccc(NS(C)(=O)=O)c(F)c1 [Example 6, (S)-N-((3-tert-butyl-1-hexyl-1H-pyrazol-5-yl)methyl)-2-(3-fluoro-4-(methylsulphonamido)phenyl)propanamide]	14.5 nM					27.7 nM	13%	
C[C@@H](C(=O)NCc1cc(C(F)(F)F)nn1-c1ccc(Cl)cc1)c1ccc(NS(C)(=O)=O)c(F)c1 [Example 22, (R)-N-((1-(4-chlorophenyl)-3-(trifluoromethyl)-1H-pyrazol-5-yl)methyl)-2-(3-fluoro-4-(methylsulphonamido)phenyl)propanamide]	42.7 nM					31.7 nM	42%	
C[C@H](C(=O)NCc1cc(C(C)(C)C)n[nH]1)c1ccc(NS(C)(=O)=O)c(F)c1 [Example 2, (S)-N-((3-tert-butyl-1H-pyrazol-5-yl)methyl)-2-(3-fluoro-4-(methylsulphonamido)phenyl)propanamide]			NE	25%				NE

Further compounds by falling Ki [1], results first:

Ki [1]	inhibition at 1 µM (hVR1 [2])	IC50 (human being) hVR1 pH: result in words (NE / AG) (hVR1 [3])	inhibition at 5 µM [1]	inhibition at 5 µM (hVR1 [2]; CHO-K1, read-out: Ki (human being) Cap column: inhibition (as a percentage) @ 5 μM, capsaicin, inhibition determined at 5 μM)	Ki (hVR1 [2])	inhibition at 10 µM (hVR1 [3])	Ki (human being) Cap: result in words (NE / AG) (hVR1 [2])	Structure (SMILES)
7.2 nM					3.7 nM	25%		CC(C(=O)NCc1cc(C(C)(C)C)nn1-c1ccc(Cl)cc1)c1ccc(NS(C)(=O)=O)c(F)c1 (stereo not drawn) [Example 14, N-((3-tert-butyl-1-(4-chlorophenyl)-1H-pyrazol-5-yl)methyl)-2-(3-fluoro-4-(methylsulphonamido)phenyl)propanamide]
1.2 nM		NE			2.2 nM			COc1cc(C(C)C(=O)NCc2cc(C(C)(C)C)nn2-c2cccc(Cl)c2)ccc1NS(C)(=O)=O (stereo not drawn) [Example 27, N-((3-tert-butyl-1-(3-chlorophenyl)-1H-pyrazol-5-yl)methyl)-2-(3-methoxy-4-(methylsulphonamido)phenyl)propanamide]
0.35 nM		NE			21.6 nM			CC(C(=O)NCc1cc(C(C)(C)C)nn1C1CCCCC1)c1ccc(NS(C)(=O)=O)c(F)c1 (stereo not drawn) [Example 7, N-((3-tert-butyl-1-cyclohexyl-1H-pyrazol-5-yl)methyl)-2-(3-fluoro-4-(methylsulphonamido)phenyl)propanamide]
